Assay results as given in patent US6607522B1, “Methods for tissue welding using laser-activated protein solders” (General Hospital Corporation, priority 2000, dated 2003).

Key:
[1] = in vitro; cited from earlier work
[2] = tested on: 5 mm incision on equatorial sclera of human cadaveric eyes; experiment: Leaking pressure of laser-welded scleral incisions in cadaveric eyes
From the text: Welding Procedure: To measure leaking pressures, an 18-gauge butterfly needle was connected by plastic tubing to a water bottle. The inner pressure in the bottle was controlled by a hand-pumped sphygmomanometer. Nonpreserved cadaveric eyes were defrosted in room-temperature water. The butterfly needle was inserted in the vitreous cavity through equatorial sclera, and the eye was pressurized to 25 to 30 mm Hg. The corneal epithelium was then removed at the wound site, and a caliper set on 5 mm used to make the extent of the incision on equatorial sclera, perpendicular to the limbus. All incisions were placed equidistant from the limbus, and areas of blue or thin sclera were avoided. […] The exact power output of the fiber was measured using a power meter (model 210; Coherent, Palo Alto, Calif.). Argon laser goggles (Glendale Protective Technologies, Lakeland, Fla.) were worn, which allowed viewing of the fluorescence from the Ce6 (emission 670 nm). To set the remaining adhesive on the scleral surface, which surrounded the wound, additional laser was applied until loss of fluorescence of the dye, which took another 30 to 45 seconds.
Leaking Pressure: Leaking pressures were then measured using the sphygmomanometer, which was increasingly pressurized in approximately 10-mm Hg increments. Leaking pressure was recorded the moment the wound leaked air or fluid. […]

| Compound | triplet yield [1] | Mean Leaking Pressure ([2]; argon blue-green laser 488-514 nm, total energy 24-57 J, 60-120 s, mean ± spread) | Mean Leaking Pressure/Total Energy Ratio ([2]; leaking pressure in mm Hg, total energy in joules) |
| --- | --- | --- | --- |
| CC1(C)C(/C=C/C=C/C=C/C=C2\N(CCCCS(=O)(=O)O)c3ccc4ccccc4c3C2(C)C)=[N+](CCCCS(=O)(=O)[O-])c2ccc3ccccc3c21 [indocyanine green] | 0.11 |  |  |
| BSA − Ce6 conjugate: Covalent bovine serum albumin-chlorin e6 conjugate solder; protein 5.2 mM, Ce6 6.2 mM, ratio 0.84 |  | 78.0 ± 11.9 millimeters of mercury | 1.75 ± 0.26 |
